Assay results taken from patent publication US20160100573A1, “QUATERNARY ORGANOSILICON SURFACTANTS, METHODS OF MAKING SAME AND APPLICATIONS CONTAINING THE SAME” (Momentive Performance Materials Inc., priority 2014, published 2016).

Tests used:
[1] = Aqueous surface tension by Wilhelmy Plate method (Kruss Tensiometer); type: physicochemical; details: ~22° C.; for CMC: 0.005M NaCl
Procedure: The aqueous surface tension of the various surfactants was determined by the Wilhelmy Plate method using a sand-blasted platinum blade as the sensor. Measurements were made using a Kruss surface Tensiometer. Surfactant solutions were prepared between 0.00001% and 1 wt % in 0.005M NaCl at ambient temperatures (˜22° C.).

[2] = Dispersibility / cloud point of surfactant in glyphosate-isopropyl amine 480 g/L formulation; type: physicochemical; details: for Cloud Point (50 g/L): surfactant at 5% in glyphosate 480 g/L formulation
Procedure: Aqueous glyphosate-isopropyl amine (480 g/L) formulations containing 5% of either Comparative-B or the composition of the present invention were prepared and evaluated for dispersion properties. The formulations were visually observed for clarity at 20-22° C., and if clear to hazy, the cloud point was also measured.
Cloud point was determined by placing 15 mL of formulation in a 20 dram vial containing a digital thermometer, and slowly heating the mixture on a magnetic stirrer/hot plate. The temperature at which the solution became opaque was recorded as the cloud point.

[3] = Impact of cosurfactant on spreading of QC-1A on polystyrene surface; type: physicochemical; details: 0.2 wt % QC-1A, 0 wt % cosurfactant
Procedure: Spreading was determined using 0.2% (actives) total surfactant solutions, where a […] was placed on a polystyrene surface and the spread diameter determined after 30 seconds. The ratio of QC-1A to Cosurfactant was varied to determine the potential for synergistic or antagonistic effects from interaction between the two surfactants. The spread results (Actual) for each set were compared to a predicted value (weighted average) based on a linear relationship between QC-1A and the Cosurfactant.

[4] = Spreading of surfactant solutions on polystyrene surface (spread diameter after 30 seconds); type: physicochemical; parameters: unit not given here
Procedure: Spreading was determined using between 0.1% and 0.4% (actives) surfactant. Solutions were prepared in Milli-Pore water (deionized) where a 10 μl, drop was placed on a polystyrene surface (Petri-dish) and the spread diameter determined after 30 seconds.

[5] = test system: Barnyardgrass (Echinochloa crus-galli); experiment: Effect of adjuvant on uptake of 14C-glyphosate isopropylamine salt into Barnyardgrass; type: in vivo
Procedure: In one other embodiment herein the quaternary organosilicon surfactant composition of the present invention is such that the foliar uptake of various agricultural chemicals is faster for applications containing the quaternary organosilicon having the general formula (I) than that for equivalent applications containing a tallow amine ethoxylate.
Uptake of ^14C-glyphosate (herbicide) into Barnyardgrass (Echinochloa crus-galli) was determined at 2 and 24 hours after treatment (HAT) according to the method described by Gaskin et al. (Gaskin, R. E.; Stevens, P. J. G. 1992. Pestic. Sci. 38: 185-192.), to establish the impact of surfactant on the speed of uptake. Uptake was determined on adaxial surface of youngest fully expanded leaf; plant at 4 leaf stage, ca 10 cm tall.

[6] = 1.00E+00 weight % surfactant in 0.005M NaCl
[7] = 1.00E-01 weight % surfactant in 0.005M NaCl
[8] = 1.00E-02 weight % surfactant in 0.005M NaCl
[9] = 1.00E-03 weight % surfactant in 0.005M NaCl
[10] = 1.00E-04 weight % surfactant in 0.005M NaCl
[11] = 1.00E-05 weight % surfactant in 0.005M NaCl
[12] = 3.00E-03 weight % surfactant in 0.005M NaCl
[13] = 0.1 wt % surfactant (actives) in deionized water
[14] = 0.2 wt % surfactant (actives) in deionized water
[15] = 0.4 wt % surfactant (actives) in deionized water

Compound | CMC [1] [wt %] | Surface Tension [1, 6] [mN/m] | Surface Tension [1, 7] [mN/m] | Surface Tension [1, 8] [mN/m] | Surface Tension [1, 9] [mN/m] | Surface Tension [1, 10] [mN/m] | Surface Tension [1, 11] [mN/m] | Surface Tension [1, 12] [mN/m] | Cloud Point (50 g/L) [2] | Spread diameter [4, 13] | Spread diameter [4, 14] | Spread diameter [4, 15] | further results
(CH3)3—Si—O—Si(CH3)(Z)—OS i(CH3)3 Where Z=—CH2CH2CH2O(CH2CH2O)8CH3 [Comparative-B] | 0.01 | 20.6 | 20.7 | 21.5 | 34.2 | 45.1 | 52.9 | 27.0 | Cloudy at 20° C.^a. |  |  |  | Dispersibility in the glyphosate formulation (visual) ([2]; 5% surfactant in glyphosate-isopropyl amine 480 g/L, 20-22° C.): insoluble in the glyphosate formulation
C[N+](C)(CCCO)CC(O)COCCC[Si](C)(C)CC[Si](C)(C)C (stereo not drawn) [QC-1A] |  |  |  |  |  |  |  |  |  |  |  |  | Spread Diameter (Actual) [3]: 48 mm; Spread Diameter (Predicted) ([3]; weighted average): 48 mm
C[N+](C)(CCCO)CC(O)COCCC[Si](C)(O[Si](C)(C)C)O[Si](C)(C)C (stereo not drawn) [TSQ-1] | 0.009 | 19.9 | 20.2 | 22.3 | 38.3 | 55.6 | 66.7 | 28.7 |  | 15 | 30 |  | 
CCCC[N+](C)(C)CC(O)COCCC[Si](C)(C)CC[Si](C)(C)C (stereo not drawn) [QC-3] |  |  |  |  |  |  |  |  | Hazy at 20 °C | 14 | 23 | 36 | 
C[N+](C)(CCCO)CC(O)COCCC[Si](C)(C)CC[Si](C)(C)C (stereo not drawn) [QC-1] |  |  |  |  |  |  |  |  | >95 °C | 13 | 33 | 47 | Glyphosate uptake relative to TAE-2 ([5]; 2 HAT, even at a 4x lower use rate): significantly enhances glyphosate uptake; Uptake % of 14C-glyphosate ([5]; adjuvant 0.05 % w/v, 2 HAT): 40.1 d %; Uptake % of 14C-glyphosate ([5]; adjuvant 0.05 % w/v, 24 HAT): 57.6 be %; Uptake % of 14C-glyphosate ([5]; adjuvant 0.1 % w/v, 2 HAT): 34.8 e %; Uptake % of 14C-glyphosate ([5]; adjuvant 0.1 % w/v, 24 HAT): 56.2 c %; Uptake % of 14C-glyphosate ([5]; adjuvant 0.2 % w/v, 2 HAT): 36.2 de %; Uptake % of 14C-glyphosate ([5]; adjuvant 0.2 % w/v, 24 HAT): 61.6 b %
COCCOCCOCCOCCOCCOCCOCCOCCOCCC[Si](C)(C)CC[Si](C)(C)C [Comparative-A, (CH3)3—Si—CH2CH2Si(CH3)2CH2CH2CH2O(CH2CH2O)8CH3] | 0.005 | 23.7 | 24.4 | 25.4 | 34.8 | 48.7 | 62.4 | 30.1 |  | 43 | 54 |  | 
C[N+](C)(CC(O)CO)CC(O)COCCC[Si](C)(C)CC[Si](C)(C)C (stereo not drawn) [QC-2] |  |  |  |  |  |  |  |  | >95 °C | 10 | 23 | 40 | 
